From patent US10472346B2, “Potent gamma-secretase modulators” (The General Hospital Coporation, priority 2014, dated 2019) come the findings set out here.

In one assay the test system is Aβ42 levels. The assay is described as follows: Effects of 7 days treatment on mouse plasma and brain Aβ42 levels. The assay is classed as in vivo, male C57BL/6J mouse. The settings on record: for percent reduction of Aβ42 levels in brain: mouse brain; for percent reduction of Aβ42 levels in plasma: mouse plasma. The method, then:
FIG. 2: The effects of Compound 1 after 7-days treatment on Aβ42 levels in male C57BL/6J mouse plasma A) (plasma) where the percent reduction was 76%, 91% and 96% for dosages of 10, 25, and 50 mg/kg, respectively and in male C57BL/6J mouse brain B) where the percent reduction was 36%, 69% and 85% for dosages of 10, 25, and 50 mg/kg, respectively.
Effects of Compound 1 (7 Days Treatment) on Mouse Plasma and Brain Aβ42 Levels. The effects of Compound 1 after 7-days treatment on Aβ42 levels in mouse plasma and brain are depicted in FIG. 2A (plasma) and FIG. 2B (brain). For FIG. 2A, the percent reduction was 76%, 91% and 96% for dosages of 10, 25, and 50 mg/kg, respectively. For FIG. 2B, the percent reduction was 36%, 69% and 85% for dosages of 10, 25, and 50 mg/kg, respectively.

The subject of the next assay is Aβ40 levels. The assay is described as follows: Effects of 7 days treatment on mouse plasma and brain Aβ40 levels. In kind it is in vivo, male C57BL/6J mouse. To be noted: for percent reduction of Aβ40 levels in brain: mouse brain; for percent reduction of Aβ40 levels in plasma: mouse plasma. The method, then: FIG. 3: The effects of Compound 1 after 7-days treatment on Aβ40 levels in male C57BL/6J mouse plasma A) (plasma) where the percent reduction was 62%, 81% and 91% for dosages of 10, 25, and 50 mg/kg, respectively and male C57BL/6J mouse brain B) where the percent reduction was 46%, 69% and 82% for dosages of 10, 25, and 50 mg/kg, respectively.
Effects of Compound 1 (7 Days Treatment) on Mouse Plasma and Brain Aβ40 Levels. The effects of Compound 1 after 7-days treatment on Aβ40 levels in mouse plasma and brain are depicted in FIG. 3A (plasma) and FIG. 3B (brain). For FIG. 3A, the percent reduction was 62%, 81% and 91% for dosages of 10, 25, and 50 mg/kg, respectively. For FIG. 3B, the percent reduction was 46%, 69% and 82% for dosages of 10, 25, and 50 mg/kg, respectively.

Take `COc1nc(-c2cc(C)c(N[C@@H](C)c3ccc(F)cc3)nn2)ccc1-n1cnc(C)c1` [Compound 1, (S)—N-(1-(4-fluorophenyl)ethyl)-6-(6-methoxy-5-(4-methyl-1H-imidazol-1-yl)pyridin-2-yl)-4-methylpyridazin-3-amine]: the “percent reduction of Aβ42 levels in brain” value in the assay on Aβ42 levels (10 mg/kg) stood at 36%; in the assay with Aβ42 levels (25 mg/kg), 69%; in the assay on Aβ42 levels (50 mg/kg), 85%. Besides, the “percent reduction of Aβ42 levels in plasma” value with Aβ42 levels (10 mg/kg) is on record as 76%; in the assay with Aβ42 levels (25 mg/kg), 91%; in the assay with Aβ42 levels (50 mg/kg), 96%. Also, the “percent reduction of Aβ40 levels in brain” value in the assay with Aβ40 levels (10 mg/kg) is 46%; with Aβ40 levels (25 mg/kg), 69%; with Aβ40 levels (50 mg/kg) it was 82%. Also, the results for the “percent reduction of Aβ40 levels in plasma” value in the assay on Aβ40 levels (10 mg/kg), in the assay on Aβ40 levels (25 mg/kg) and with Aβ40 levels (50 mg/kg) were 62%, 81% and 91%, respectively.
